Several values for one entry are separate records, joined by “and”; a condition that tells them apart may be missing. Identical values can stand only once.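 Exposure lasted 48 hours, with cells grown in 96-well plates and compounds tested at five concentrations. GI50: concentration for 50% inhibition of growth. The concentration for full growth arrest is given as TGI.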

Drawing on PubChem BioAssay (NCI), this text covers TGI and GI50 for 14 molecules.

Holding throughout (assay): growth of human tumour cells (NCI), 48 h
For assay [1], the system named is DMS 114 small cell lung.
Assay [2] has as its system RPMI-8226 leukemia.
Assay [3] concerns CAKI-1 renal.
Assay [4] deals with M19-MEL melanoma.
Assay [5] has as its system SF-539 CNS.
Assay [6] deals with OVCAR-8 ovarian.
Assay [7] deals with ACHN renal.
Assay [8] concerns KM12 colon.
Assay [9] concerns SK-MEL-5 melanoma.

For the molecule `CCOc1ccc(NC(=O)C(=O)C(C(=O)c2ccc3ccccc3c2)C2OC(=O)c3ccccc32)cc1` (centres undefined), the TGI in assay [1] is 89.7 µM; in assay [2] it was 38.4 µM; in [3] it was above 100 µM; in assay [4], 34.6 µM; in assay [5] it was 39 µM; in [6], above 100 µM. Moreover, the TGI is above 100 µM in [7], above 100 µM in assay [8] and 31.9 µM in [9].
As to `CCCCCCCCC/C=C1\CCC(CN(C)C)C1=O` (centres undefined), the TGI was found to be 4.87 µM in assay [1]; 4.99 µM in assay [3]; 3.87 µM in assay [4]; 3.18 µM in [5]; 3.11 µM in assay [6]; 4.98 µM in [7]. Also, the figures for the TGI in assay [8] and in [9] were 3.84 µM and 3.9 µM, respectively.
For `CNC(=O)OCc1c2ccncc2c(C)c2c1[nH]c1ccc(OC)cc12`, the TGI is 1.32 µM in [1]; 0.668 µM in assay [2]; above 100 µM in assay [3]; 1.68 µM in assay [4]; 0.719 µM in assay [5]; above 100 µM in assay [6]. Also, the TGI in [7] is 0.563 µM; in assay [8] it was above 100 µM.
For `C[C@]12CCC(=O)CC1CCCC2=O` (some centres undefined), the TGI in assay [1], in [2], in [3], in assay [4], in assay [5] and in [6] was above 100 µM in each case. Moreover, the TGI in [8] and in assay [9] was above 100 µM throughout.
As for `CCOC(=O)/C(O)=C(/C(=O)OC)c1ccc(Cl)cc1`, the TGI in assay [1], in assay [2], in assay [3], in assay [4], in assay [5] and in [6] was above 100 µM in each case. Moreover, the TGI in assay [7], in assay [8] and in [9] was above 100 µM each time.
Regarding `CCCN(CCC)C(=O)C(=O)c1c(N)[nH]n(-c2ccccc2)c1=O`, the TGI in assay [1], in assay [2], in assay [3], in assay [4], in assay [5] and in [6] was above 100 µM in each case. In addition, the TGI in assay [7], in assay [8] and in assay [9] was above 100 µM throughout.
Regarding `CN(C)C(=O)c1ccc([N+](=O)[O-])cc1`, the TGI in assay [1], in assay [3], in [4], in assay [5], in assay [6] and in [7] was above 100 µM throughout. The TGI in assay [8] and in [9] was above 100 µM in each case.
As to `COc1cccc(NC(=O)CC(=O)N2N=C(N3c4ccccc4Sc4ccccc43)CC2c2ccccc2)c1` (centres undefined), the TGI in assay [1], in [2], in [3], in assay [4], in assay [5] and in assay [6] was above 100 µM each time. For the same molecule, the TGI in assay [7], in assay [8] and in assay [9] was above 100 µM each time.
`CC(=O)[CH-]C(=O)c1ccccc1.CC(=O)[CH-]C(=O)c1ccccc1.CC(=O)[CH-]C(=O)c1ccccc1.[In+3]`: the GI50 in [2] was 19.2 µM; in [3] it was 99.7 µM; in assay [4] it was 28.8 µM; in [5], 21.6 µM; in assay [6], 24.9 µM; in [7] it was 35 µM. Moreover, the GI50 in assay [8] is 61.7 µM. Moreover, the TGI was 64.4 µM in [2]; above 100 µM in assay [3]; above 100 µM in assay [4]; above 100 µM in [5]; above 100 µM in assay [6]; above 100 µM in [7]. For the same molecule, the TGI in [8] is above 100 µM.
`COc1cc(C2c3cc4c(cc3[C@@H](NCCN3CCOCC3)C3COC(=O)[C@H]23)OCO4)cc(OC)c1O` (some centres undefined): the GI50 in assay [1] was 1.43 µM and 2.95 µM; in [2], 0.855 µM and 1.81 µM; in assay [7], 0.264 µM and 0.679 µM; in [9] it was 0.877 µM and 2.77 µM. The TGI is 5.05 µM and 8.98 µM in assay [1]; 6.58 µM and 9.59 µM in [2]; above 75 µM in assay [3]; 2.53 µM and 3.58 µM in assay [5]; 11.9 µM in assay [6]; 1.34 µM and 2.84 µM in [7]. Moreover, the TGI is 12.1 µM and > 17.5 µM in assay [8]; 1.88 µM and 12.7 µM in [9].
As to `N#CNC(=NCCc1c[nH]c2ccccc12)Oc1ccccc1`, the TGI in assay [1], in assay [2], in assay [4], in assay [5], in assay [6] and in assay [7] was above 100 µM throughout. Further, the TGI in assay [8] and in assay [9] was above 100 µM in each case.
Consider `COC(=O)C(CC1=C(O)Nc2ccccc2N1)/C(=N/NC(N)=O)C(=O)Nc1ccccc1C` (centres undefined), for which the TGI in [1] is 26.5 µM; in assay [2], 48.4 µM; in [3] it was above 100 µM; in assay [4], above 100 µM; in [5], above 100 µM; in [6], above 100 µM. In addition, the TGI in assay [7], in [8] and in assay [9] was above 100 µM throughout.
`O=C1/C(=N\O)S(=O)(=O)c2ccccc21`: the TGI in [1], in assay [2], in assay [3], in assay [4], in assay [5] and in assay [6] was above 100 µM in each case. The TGI in assay [7], in assay [8] and in assay [9] was above 100 µM throughout.
Consider `COC1=C(C)C(=O)c2c(cc3c(c2O)C(C)(CCC=C(C)C)C(C)O3)C1=O` (centres undefined), for which the TGI in [1] is above 100 µM; in assay [2], above 100 µM; in assay [3] it was above 100 µM; in assay [4], 30.1 µM; in assay [5], above 100 µM; in assay [6], above 100 µM. Further, the TGI was above 100 µM in [7], above 100 µM in assay [8] and 27.4 µM in assay [9].
